Results published in ChEMBL document CHEMBL5316268 (J Med Chem, 2023).
The source made the active and inactive calls. The calls are words filed in the database; no cut-off is given here.

Key:
EG7 [1] = test: Antitumor activity against mouse EG7 cells implanted in C57BL/6 mouse assessed as reduction in tumor volume at 100 mg/kg, po bid administered for 23 days in presence of oxaliplatin; assay type: functional, organism-based; conditions: time 23.0 day
[2] = Plasma protein binding in monkey at 10 uM assessed as bound fraction; assay type: ADME, cell-free, Macaca mulatta; conditions: rhesus monkey, read-out: PPB (converted)
5'-nucleotidase [3] = molecular target: T1, 5'-nucleotidase (Homo sapiens, UniProt P21589); test: Inhibition of CD73 in human plasma incubated for 15 mins in presence of 15N5-AMP by LC/MS analysis; assay type: cell-free
[4] = Tmax in CD rat at 50 mg/kg, po measured for 24 hrs by LC-MS/MS analysis; assay type: ADME, organism-based; conditions: in vivo
EG7 [5] = test: Antitumor activity against mouse EG7 cells implanted in C57BL/6 mouse assessed as activation of tumor-directed immune response by measuring increase in tumor-infiltrating CD8 positive cells at 50 mg/kg, po bid measured after 14 days by flow cytometry; assay type: functional, organism-based; conditions: time 14.0 day
[6] = Drug concentration in CD rat plasma at 50 to 500 mg/kg, po measured for 24 hrs by LC-MS/MS analysis; assay type: ADME, organism-based; conditions: dose 50-500 mg/kg
5'-nucleotidase [7] = molecular target: T1, 5'-nucleotidase; test: Competitive inhibition of cell surface anchored CD73 (unknown origin) expressed in human SK-MEL-28 cells assessed as inhibition constant incubated for 30 mins by malachite green assay; assay type: cell-based
Cytochrome P450 2C8 = molecular target: T2, Cytochrome P450 2C8 (Homo sapiens, UniProt P10632); test: Inhibition of human CYP2C8 at 10 uM; assay type: ADME
T2 sequence (P10632 whole entry): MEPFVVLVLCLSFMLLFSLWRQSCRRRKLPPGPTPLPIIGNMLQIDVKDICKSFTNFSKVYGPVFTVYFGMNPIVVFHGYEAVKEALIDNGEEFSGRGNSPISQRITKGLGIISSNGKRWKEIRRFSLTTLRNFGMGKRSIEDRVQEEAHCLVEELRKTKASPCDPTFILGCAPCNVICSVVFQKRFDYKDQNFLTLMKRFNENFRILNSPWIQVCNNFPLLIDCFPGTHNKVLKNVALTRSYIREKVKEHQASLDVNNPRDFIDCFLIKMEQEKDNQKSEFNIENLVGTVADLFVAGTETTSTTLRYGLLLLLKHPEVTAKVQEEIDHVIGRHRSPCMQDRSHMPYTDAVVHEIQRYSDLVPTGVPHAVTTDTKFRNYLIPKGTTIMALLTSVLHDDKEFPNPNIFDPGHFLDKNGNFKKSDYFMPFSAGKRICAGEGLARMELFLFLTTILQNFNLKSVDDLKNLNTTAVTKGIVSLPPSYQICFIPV

[8] = Cmax in CD rat at 50 mg/kg, po measured for 24 hrs by LC-MS/MS analysis; assay type: ADME, organism-based; set-up: dose 50 mg/kg, time 24 hrs, route po; conditions: in vivo
5'-nucleotidase [9] = molecular target: T1, 5'-nucleotidase; test: Competitive inhibition of soluble C-terminal 6His-tagged recombinant human CD73 (27 to 547 residues) expressed in CHO cells assessed as inhibition constant incubated for 1 hr by malachite green based spectrophotometer assay; assay type: cell-based
[10] = Cmax in CD rat at 200 mg/kg, po measured for 24 hrs by LC-MS/MS analysis; assay type: ADME, organism-based; set-up: time 24 hrs, dose 200 mg/kg, route po; conditions: in vivo
Cytochrome P450 3A4 = Cytochrome P450 3A4 (Homo sapiens, UniProt P08684); test: Inhibition of human CYP3A4 at 10 uM; assay type: ADME
EG7 [11] = test: Antitumor activity against mouse EG7 cells implanted in C57BL/6 mouse assessed as reduction in tumor volume at 50 mg/kg, po bid administered for 19 days in presence of doxorubicin; assay type: functional, organism-based; conditions: time 19.0 day
Cytochrome P450 2B6 = molecular target: T3, Cytochrome P450 2B6 (Homo sapiens, UniProt P20813); test: Inhibition of human CYP2B6 at 10 uM; assay type: ADME
T3 sequence (P20813 whole entry): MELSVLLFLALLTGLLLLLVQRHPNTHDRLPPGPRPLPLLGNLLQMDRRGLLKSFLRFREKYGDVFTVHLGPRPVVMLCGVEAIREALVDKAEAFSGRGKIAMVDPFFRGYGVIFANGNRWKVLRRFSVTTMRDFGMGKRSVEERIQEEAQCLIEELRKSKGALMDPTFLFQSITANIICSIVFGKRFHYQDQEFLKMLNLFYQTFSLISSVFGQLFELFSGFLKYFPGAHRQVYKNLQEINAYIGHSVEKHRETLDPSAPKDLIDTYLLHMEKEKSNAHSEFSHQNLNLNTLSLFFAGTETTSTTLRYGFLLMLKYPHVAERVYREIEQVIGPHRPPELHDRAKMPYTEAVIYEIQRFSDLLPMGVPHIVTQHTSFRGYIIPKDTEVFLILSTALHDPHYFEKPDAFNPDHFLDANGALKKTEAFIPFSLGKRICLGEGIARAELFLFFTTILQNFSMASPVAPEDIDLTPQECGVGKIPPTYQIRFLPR

[12] = Tmax in CD rat at 200 mg/kg, po measured for 24 hrs by LC-MS/MS analysis; assay type: ADME, organism-based; conditions: in vivo
Cytochrome P450 1A2 = molecular target: T4, Cytochrome P450 1A2 (Homo sapiens, UniProt P05177); test: Inhibition of human CYP1A2 at 10 uM; assay type: ADME
T4 sequence (P05177 whole entry): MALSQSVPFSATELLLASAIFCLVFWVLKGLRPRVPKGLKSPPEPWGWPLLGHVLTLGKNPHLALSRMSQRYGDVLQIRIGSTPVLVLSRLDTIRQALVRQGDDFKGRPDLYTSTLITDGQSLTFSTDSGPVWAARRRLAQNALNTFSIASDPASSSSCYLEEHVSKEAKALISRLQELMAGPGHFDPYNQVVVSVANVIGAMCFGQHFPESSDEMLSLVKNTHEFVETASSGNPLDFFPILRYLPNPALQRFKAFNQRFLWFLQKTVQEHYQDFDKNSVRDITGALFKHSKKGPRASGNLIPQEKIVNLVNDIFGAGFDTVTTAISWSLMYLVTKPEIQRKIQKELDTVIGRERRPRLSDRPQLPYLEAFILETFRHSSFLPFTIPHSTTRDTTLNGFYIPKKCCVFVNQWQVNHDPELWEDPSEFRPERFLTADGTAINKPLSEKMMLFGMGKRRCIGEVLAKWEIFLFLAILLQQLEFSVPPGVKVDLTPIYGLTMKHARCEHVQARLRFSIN

CD8-positive T cell = test: Reversal of AMP-mediated suppression of human CD8-positive T cells function assessed as increase in granzyme B level at 0.01 to 1000 nM measured after 4 days by ELISA; assay type: functional, cell-based; conditions: dose 0.01-1000 nM, time 4.0 day

T1 sequence (P21589 whole entry): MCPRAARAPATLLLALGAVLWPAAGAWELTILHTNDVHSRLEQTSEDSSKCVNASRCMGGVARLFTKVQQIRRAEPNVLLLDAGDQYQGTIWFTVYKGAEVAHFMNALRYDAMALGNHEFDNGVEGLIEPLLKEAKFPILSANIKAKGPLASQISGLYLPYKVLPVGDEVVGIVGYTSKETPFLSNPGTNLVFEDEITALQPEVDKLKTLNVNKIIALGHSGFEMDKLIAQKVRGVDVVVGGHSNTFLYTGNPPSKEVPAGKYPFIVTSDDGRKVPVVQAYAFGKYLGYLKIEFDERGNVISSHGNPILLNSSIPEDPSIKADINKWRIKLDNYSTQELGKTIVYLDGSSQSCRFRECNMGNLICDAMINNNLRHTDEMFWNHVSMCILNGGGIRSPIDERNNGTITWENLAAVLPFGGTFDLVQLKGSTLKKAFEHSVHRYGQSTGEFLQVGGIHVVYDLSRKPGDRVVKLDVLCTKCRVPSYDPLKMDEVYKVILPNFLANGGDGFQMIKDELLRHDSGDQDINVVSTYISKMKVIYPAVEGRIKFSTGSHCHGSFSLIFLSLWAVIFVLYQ
Sequence of Cytochrome P450 3A4 (P08684 whole entry): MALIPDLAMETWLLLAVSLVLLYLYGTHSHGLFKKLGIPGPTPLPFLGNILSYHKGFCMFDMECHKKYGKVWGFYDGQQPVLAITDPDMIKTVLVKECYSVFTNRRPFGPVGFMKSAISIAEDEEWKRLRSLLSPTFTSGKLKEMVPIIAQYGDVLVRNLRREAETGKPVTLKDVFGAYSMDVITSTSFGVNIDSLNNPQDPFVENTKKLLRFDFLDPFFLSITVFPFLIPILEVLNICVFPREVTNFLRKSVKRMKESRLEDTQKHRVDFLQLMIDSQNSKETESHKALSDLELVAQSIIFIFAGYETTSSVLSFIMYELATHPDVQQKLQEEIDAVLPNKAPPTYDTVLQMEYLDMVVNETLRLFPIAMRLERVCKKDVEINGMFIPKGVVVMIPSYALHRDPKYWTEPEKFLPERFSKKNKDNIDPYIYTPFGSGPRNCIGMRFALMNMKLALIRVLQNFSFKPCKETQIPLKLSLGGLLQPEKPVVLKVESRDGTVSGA

fraction unbound at 10 µM [2]: 0.4
IC90 (5'-nucleotidase [3]): 3 nM
Tmax [4]: 48 min
concentration at 24 h [6]: > 3 nM
Ki (5'-nucleotidase [7]): 0.11 nM
inhibition (INH) (Cytochrome P450 2C8): Not Active
Cmax [8]: 74 nM
Ki (5'-nucleotidase [9]): 0.038 nM
Cmax [10]: 1800 nM
inhibition (INH) (Cytochrome P450 3A4): Not Active
inhibition (INH) (Cytochrome P450 2B6): Not Active
Tmax [12]: 48 min
inhibition (INH) (Cytochrome P450 1A2): Not Active
SMILES: C#C[C@@]1(O)[C@@H](COC(Cc2ccc(N3CCCNC3=O)cc2)(C(=O)O)C(=O)O)O[C@@H](n2cnc3c(N)nc(Cl)nc32)[C@@H]1O
Activity (EG7 [1]): Active
Activity (EG7 [5]): Active
Activity (EG7 [11]): Active
Activity (CD8-positive T cell): Active
